Where two headings read alike, the source gives them in different places.

For one test, the target named is NaV1.6 (Homo sapiens, UniProt Q9UQD0). The note with it: read-out: TTX IC50; cited from earlier work.
The target in another test is NaV1.3 (Homo sapiens, UniProt Q9NY46). To be noted: read-out: TTX IC50; cited from earlier work.
In the next test the target is NaV1.8 (Homo sapiens, UniProt Q9Y5Y9). To be noted: read-out: TTX IC50; cited from earlier work.
The next test addresses NaV1.9 (Homo sapiens, UniProt Q9UI33). To be noted: read-out: TTX IC50; cited from earlier work.
Another test has as its target NaV1.1 (Homo sapiens, UniProt P35498). The note with it: read-out: TTX IC50; cited from earlier work.
Test [1] relates to voltage-gated sodium ion channels. Nature of the test: Assays for detecting and measuring NaV inhibition properties of compounds (Table 3 activity data; the specific assay and subtype are not stated). Type of test: cell-based.
The next test deals with neuropathic pain. The note with it: in vivo; cited from earlier work.
[2] abbreviates: activity data for selected compounds, NaV subtype not stated, read-out: IC50.

Sequence of NaV1.6 (Q9UQD0 whole entry, looked up): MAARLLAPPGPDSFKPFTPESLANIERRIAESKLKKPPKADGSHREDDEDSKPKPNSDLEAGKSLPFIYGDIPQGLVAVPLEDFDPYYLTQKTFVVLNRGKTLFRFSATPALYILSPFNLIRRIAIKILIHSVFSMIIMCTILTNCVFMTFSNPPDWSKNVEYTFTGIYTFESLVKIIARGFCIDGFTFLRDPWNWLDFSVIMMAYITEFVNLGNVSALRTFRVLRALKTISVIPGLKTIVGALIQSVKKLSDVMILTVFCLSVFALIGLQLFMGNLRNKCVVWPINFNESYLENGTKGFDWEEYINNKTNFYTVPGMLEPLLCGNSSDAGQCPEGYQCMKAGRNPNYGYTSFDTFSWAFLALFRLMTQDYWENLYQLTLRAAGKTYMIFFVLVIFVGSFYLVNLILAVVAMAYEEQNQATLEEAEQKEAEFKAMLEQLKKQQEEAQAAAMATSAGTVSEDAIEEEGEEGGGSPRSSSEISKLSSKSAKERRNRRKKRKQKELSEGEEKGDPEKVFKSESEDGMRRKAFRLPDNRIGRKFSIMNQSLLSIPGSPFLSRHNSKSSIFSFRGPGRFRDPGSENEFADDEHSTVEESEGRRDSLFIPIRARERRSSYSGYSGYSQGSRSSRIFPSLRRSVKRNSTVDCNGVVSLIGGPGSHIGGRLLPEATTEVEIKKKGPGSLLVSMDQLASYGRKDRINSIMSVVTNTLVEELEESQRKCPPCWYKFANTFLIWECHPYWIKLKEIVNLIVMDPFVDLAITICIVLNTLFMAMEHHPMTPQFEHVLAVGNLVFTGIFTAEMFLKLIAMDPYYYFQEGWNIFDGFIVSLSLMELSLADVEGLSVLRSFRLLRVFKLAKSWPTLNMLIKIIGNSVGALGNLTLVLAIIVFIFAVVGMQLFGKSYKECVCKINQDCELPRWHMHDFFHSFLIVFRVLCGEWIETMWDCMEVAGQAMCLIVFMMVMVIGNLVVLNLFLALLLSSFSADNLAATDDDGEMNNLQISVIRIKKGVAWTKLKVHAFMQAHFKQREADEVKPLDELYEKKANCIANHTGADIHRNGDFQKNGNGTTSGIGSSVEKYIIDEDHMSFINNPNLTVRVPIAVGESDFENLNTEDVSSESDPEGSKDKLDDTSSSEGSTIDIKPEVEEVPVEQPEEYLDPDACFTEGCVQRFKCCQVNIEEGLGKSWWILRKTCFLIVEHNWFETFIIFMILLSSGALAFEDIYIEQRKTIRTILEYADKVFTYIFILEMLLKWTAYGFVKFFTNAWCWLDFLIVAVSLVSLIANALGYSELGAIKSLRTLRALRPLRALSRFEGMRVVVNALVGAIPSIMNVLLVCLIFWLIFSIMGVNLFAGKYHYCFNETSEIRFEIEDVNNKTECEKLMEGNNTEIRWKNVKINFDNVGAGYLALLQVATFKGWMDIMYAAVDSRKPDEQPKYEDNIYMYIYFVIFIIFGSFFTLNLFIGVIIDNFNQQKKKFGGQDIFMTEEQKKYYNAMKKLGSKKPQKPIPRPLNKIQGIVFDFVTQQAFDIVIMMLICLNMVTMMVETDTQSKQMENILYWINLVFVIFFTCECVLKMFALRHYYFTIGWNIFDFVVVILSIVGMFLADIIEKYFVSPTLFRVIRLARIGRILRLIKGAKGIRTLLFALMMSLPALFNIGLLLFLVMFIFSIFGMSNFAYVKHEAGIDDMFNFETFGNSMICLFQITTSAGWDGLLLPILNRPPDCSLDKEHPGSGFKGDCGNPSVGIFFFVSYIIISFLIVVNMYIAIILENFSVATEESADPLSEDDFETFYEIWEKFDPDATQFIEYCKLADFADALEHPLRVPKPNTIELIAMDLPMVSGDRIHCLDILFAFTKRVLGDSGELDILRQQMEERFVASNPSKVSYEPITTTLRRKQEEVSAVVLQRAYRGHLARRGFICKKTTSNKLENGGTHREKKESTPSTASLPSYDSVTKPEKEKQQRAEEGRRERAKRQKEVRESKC
Sequence of NaV1.9 (Q9UI33 whole entry, looked up): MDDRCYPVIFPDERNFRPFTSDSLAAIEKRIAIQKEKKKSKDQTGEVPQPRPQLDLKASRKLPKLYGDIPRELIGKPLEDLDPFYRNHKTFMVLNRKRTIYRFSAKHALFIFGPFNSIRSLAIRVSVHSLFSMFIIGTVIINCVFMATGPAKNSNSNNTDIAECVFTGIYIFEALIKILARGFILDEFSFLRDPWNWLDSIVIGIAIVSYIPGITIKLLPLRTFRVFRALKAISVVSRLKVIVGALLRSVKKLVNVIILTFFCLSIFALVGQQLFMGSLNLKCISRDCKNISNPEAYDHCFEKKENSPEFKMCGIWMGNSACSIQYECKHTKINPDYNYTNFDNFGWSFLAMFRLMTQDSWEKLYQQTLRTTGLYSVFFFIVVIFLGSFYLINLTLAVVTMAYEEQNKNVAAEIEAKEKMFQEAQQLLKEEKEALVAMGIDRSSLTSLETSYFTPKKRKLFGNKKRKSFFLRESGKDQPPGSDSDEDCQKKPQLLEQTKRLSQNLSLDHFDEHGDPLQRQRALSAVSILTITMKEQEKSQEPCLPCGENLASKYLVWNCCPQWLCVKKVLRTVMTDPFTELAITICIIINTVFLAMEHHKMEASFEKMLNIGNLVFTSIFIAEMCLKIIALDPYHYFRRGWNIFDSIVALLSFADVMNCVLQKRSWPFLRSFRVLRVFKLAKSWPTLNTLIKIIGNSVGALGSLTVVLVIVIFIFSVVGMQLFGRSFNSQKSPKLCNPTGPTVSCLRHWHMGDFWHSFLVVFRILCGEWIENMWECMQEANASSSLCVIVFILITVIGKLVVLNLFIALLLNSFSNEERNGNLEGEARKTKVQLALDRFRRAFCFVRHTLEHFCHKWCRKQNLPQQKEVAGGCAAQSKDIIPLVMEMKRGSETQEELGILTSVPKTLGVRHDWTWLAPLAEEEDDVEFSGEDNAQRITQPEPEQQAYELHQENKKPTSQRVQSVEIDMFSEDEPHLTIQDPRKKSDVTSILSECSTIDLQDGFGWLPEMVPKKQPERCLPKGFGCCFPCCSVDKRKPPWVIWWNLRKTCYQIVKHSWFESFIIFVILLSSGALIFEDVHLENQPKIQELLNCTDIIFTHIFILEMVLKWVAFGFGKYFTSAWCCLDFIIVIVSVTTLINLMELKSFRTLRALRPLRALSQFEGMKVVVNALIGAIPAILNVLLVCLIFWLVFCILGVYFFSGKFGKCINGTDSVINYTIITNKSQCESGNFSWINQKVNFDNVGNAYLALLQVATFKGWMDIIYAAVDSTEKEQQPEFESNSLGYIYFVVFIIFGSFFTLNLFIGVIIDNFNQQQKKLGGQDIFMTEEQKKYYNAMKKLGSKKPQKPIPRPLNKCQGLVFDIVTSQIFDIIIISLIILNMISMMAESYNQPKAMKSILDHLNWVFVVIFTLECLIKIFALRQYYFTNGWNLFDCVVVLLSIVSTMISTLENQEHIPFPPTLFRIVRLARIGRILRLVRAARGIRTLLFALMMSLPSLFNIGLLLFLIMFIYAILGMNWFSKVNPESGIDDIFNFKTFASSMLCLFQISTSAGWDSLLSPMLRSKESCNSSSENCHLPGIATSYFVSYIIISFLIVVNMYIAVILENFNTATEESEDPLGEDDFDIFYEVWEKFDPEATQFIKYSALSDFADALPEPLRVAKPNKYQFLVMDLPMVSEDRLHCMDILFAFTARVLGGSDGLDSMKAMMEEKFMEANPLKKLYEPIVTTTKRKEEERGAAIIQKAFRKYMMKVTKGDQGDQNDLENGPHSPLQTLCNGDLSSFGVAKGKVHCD

A word on the IC50: it is the concentration at which inhibition is half-maximal. As for `NC1=N[C@H](O)[C@H]2[C@H]3O[C@]4(O)O[C@@H]([C@@H](O)[C@@]2(N1)[C@@H]4O)[C@]3(O)CO` [TTX, tetrodotoxin], the IC50 at NaV1.6 is 0.006 µM; at NaV1.3, 0.015 µM; on NaV1.8 it was > 50 µM; at NaV1.9 it was 1 µM; on NaV1.1, 0.01 µM.

Regarding `O=C(COc1ccc(Cl)cc1)Nc1ccc(-c2ccc(S(=O)(=O)Nc3nccs3)cc2)cc1` [Compound 1], in test [1] (setting [2]), the IC50 was 1 to 5 µM.

As for `NCC1(CC(=O)O)CCCCC1` [Gabapentin], in the test on neuropathic pain, the “share of patients in which it works” value was 60%.

`C[C@@H](C(=O)Nc1ccc(-c2ccc(S(=O)(=O)Nc3nccs3)cc2)cc1)n1ccc2c(F)cccc21` [Compound 6, (S)-2-(4-Fluoro-indol-1-yl)-N-[4′-(thiazol-2-ylsulfamoyl)-biphenyl-4-yl]-propionamide]: the IC50 in test [1] (setting [2]) is < 1 µM.

Take `COc1cccc(CC(=O)Nc2ccc(-c3ccc(S(=O)(=O)Nc4nccs4)cc3)cc2)c1` [Compound 2]: the half-maximal inhibitory concentration (IC50) in test [1] was > 5 µM.

Take `O=C(COc1cccc(Cl)c1)Nc1ccc(-c2ccc(S(=O)(=O)Nc3nccs3)cc2)cc1` [Compound 5, 2-(3-Chloro-phenoxy)-N-[4′-(thiazol-2-ylsulfamoyl)-biphenyl-4-yl]-acetamide]: the half-inhibitory concentration (IC50) in test [1] (setting [2]) fell in the range of 1 to 5 µM.

With `O=C(COc1ccnc2c(C(F)(F)F)cccc12)Nc1ccc(-c2ccc(S(=O)(=O)Nc3nccs3)cc2)cc1` [Compound 4, N-[4′-(Thiazol-2-ylsulfamoyl)-biphenyl-4-yl]-2-(8-trifluoromethyl-quinolin-4-yloxy)-acetamide], in test [1] (setting [2]), the IC50 is > 5 µM.

Take `O=C(Nc1ccc(-c2ccc(S(=O)(=O)Nc3nccs3)cc2)cc1)c1ccccc1F` [Compound 3]: in test [1], the half-inhibitory concentration (IC50) lay in the range of 1 to 5 µM.

Values taken from patent US8236833B2, “Biphenyl derivatives as modulators of voltage gated ion channels” (Vertex Pharmaceuticals Incorporated, priority 2005, dated 2012).
